In patent US8697661B2, “Use of spinosyns and spinosyn compositions against herpesviridae viral infections” (priority 2009, dated 2014):

How the values were obtained:
[1] = test system: macrophage mice cell type J774; conditions: read-out: Cytotoxicity CC50; J774
[2] = test system: leishmania donovati
[3] = test system: BxPC-3 Human pancreatic adenocarcinoma; assay: Cell proliferation assay, BxPC-3; conditions: 24 hours of exposure (control 3.02)
Method: (§1) Cell Proliferation assay: for each cell line, cell suspensions ranging in concentration of approximately 2-5×10^5 cells/mL of growth medium were prepared. 1 mL of each of these suspensions was aseptically transferred to a sterile tissue culture flask (12.5 or 25 cm^2) containing fresh growth medium. Three flasks (triplicate) were used for each group, and for each time point of viable cell number/mL measurement at 1, 3 and 5 days post-treatment (9 dishes per group in total). The cells were incubated and allowed to adhere to the bottom of the flasks and proliferate.
(§2) After approximately 24 hours of exposure to treatments, dosing media was replaced with fresh growth media and cells were returned to the incubator and allowed to proliferate.
(§3) Assessment of Cell Proliferation: For each cell line, measurement of viable cell number/mL was performed as already described above. This measurement was performed in triplicate from three flasks per group, at 1, 3 and 5 days post-removal of treatment.

[4] = test system: MDA-MB-231 Human breast adenocarcinoma cells; assay: Cell proliferation assay, MDA-MB-231; conditions: for Cell Number Doubling Time: 24 hours of exposure (control 3.11)
Method: as §1, §2, §3

For Spinosad, which CC50 [1] is on record?
Its CC50 is 42.6 ± 17.3 µM.

What about the “elimination of parasites in spleen” value ([2]; BALB/c female mice, 31.6 mg/kg intraperitoneally daily for 14 consecutive days in DMSO, from two weeks post infection, P=0.05) of the same substance?
The value was 82%.

What about the “elimination of parasites in the liver” value ([2]; BALB/c female mice, 31.6 mg/kg intraperitoneally daily for 14 consecutive days in DMSO, P=0.083) of the same substance?
Its value is 73%.

What about the “impact on liver and spleen weight” value ([2]; BALB/c mice, 31.6 mg/kg i.p. 14 days, Mann-Whitney test) of the same substance?
Its value is “no impact”.

What about the signs of toxicity ([2]; BALB/c mice, treatment period of 14 days) of the same substance?
Its signs of toxicity is “No sign of toxicity”.

What about the “Cell Number Doubling Time” value ([3]; BxPC-3, spinosad 5 μg/mL) of the same substance?
The value was 3.86 days.

What about the “Cell Number Doubling Time” value ([3]; BxPC-3, spinosad 10 μg/mL) of the same substance?
Its value is 4.76 days.

What about the “Cell Number Doubling Time” value ([3]; BxPC-3, spinosad 15 μg/mL) of the same substance?
Its value is 6.25 days.

What about the “Cell Number Doubling Time” value ([4]; MDA-MB-231, spinosad 5 μg/mL) of the same substance?
Its value is 3.99 days.

And the “Cell Number Doubling Time” value ([4]; MDA-MB-231, spinosad 10 μg/mL)?
Its value is 5.09 days.

What about the “Cell Number Doubling Time” value ([4]; MDA-MB-231, spinosad 15 μg/mL) of the same substance?
The value was 7.13 days.

And the “cell number doubling time from 3 days post-treatment increased by” value ([4]; high dose level 15 μg/mL, MDA-MB-231)?
The value was “approximately 129.3%”.
